Reference: US20240190855A1 (Relay Therapeutics, Inc., priority 2021, published 2024)

Key:
[1] = biological target: target tagged with nanoLuciferase in 293-NB2 cells (Homo sapiens, UniProt P24941); test: nanoBRET TE Intracellular Kinase Assay (Cell nanoBRET Assay); assay type: cell-based
Experimental: Compounds described herein were also tested in a nanoBRET TE Intracellular Kinase Assay. Test compounds were prepared in a DMSO stock solution. 45 uL of stock solution was transferred to a 384 well plate (Greiner, 781201), and a 3-fold 11-point dilution was performed. 293-NB2 cells expressing target tagged with nanoLuciferase were diluted in cell growth media (DMEM+10% FBS+1% Pen/Strep media) and a 40 uL cell solution of 7.5E4 cells/mL was seeded in a separate 384 well cell culture plate and incubated overnight at 37° C./5% CO2/100% humidity. […] 80 nL of each concentration of compound was transferred from the compound plate to a corresponding well in the cell culture plate by Echo550 liquid handler. The plates were incubated for 2 hrs at 37° C./5% CO2/100% humidity. […] Chemiluminescence was then read on an EnVision reader (PerkinElmer).

[2] = biological target: T1, CDK2/Cyclin E complex (Homo sapiens, UniProt P24941); test: CDK2/Cyclin E fluorescence-based microfluidic mobility shift assay (CDK2 Biochemical Caliper Assay); conditions: read-out: Biochemical CDK2/CyclinE Caliper IC50
T1 construct: purchased Eurofins 14-475
Procedure, shortened: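 Microfluidic mobility-shift readout after EDTA termination measured phosphorylation of fluorescent FL Peptide 18 (1.5 uM final) in a 20 hr room-temperature reaction. Compounds were tested at 11 concentrations (3-fold).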

[3] = test system: CDK2-independent (SKOV3, COV504, COV644) versus CDK2-dependent (COV318, OVCAR3, HCC1569) cell lines; test: Cell proliferation selectivity assay (CyQUANT Direct Cell Proliferation Assay); assay type: cell-based; conditions: mean of IC50 ratios between each CDK2-independent versus CDK2-dependent cell line; 120 hours incubation
Experimental: Compounds described herein were also tested in cell proliferation selectivity assays. OVCAR3, HCC1569, and SKOV3 cell lines were obtained from ATCC and cultured as recommended by supplier. COV318, COV504, and COV644 cell lines were obtained from Sigma-Aldrich and were cultured as recommended by supplier. The genetic background and dependency of each cell line was determined using publicly available databases: cBioPortal and DepMap. […] All six cell lines are CDK1-dependent given that CDK1 is an essential gene. Proliferation assay was carried out by seeding cells into 384-well plates at predetermined density (ranging from 150 to 1500 cells per well) in corresponding culture media, followed by brief centrifugation at 1000×g, and culturing cells for 24 hours at 37° C., 5% CO2. The following day, compounds were serially diluted (1l-point, 3-fold dilution scheme with 20 μM as top concentration) and dispensed directly onto cells using Echo 555 acoustic liquid handler (Labcyte). The cells were incubated with the compounds at 37° C., 5% CO2 for 120 hours. Relative number of viable cells in each well was determined using CyQUANT Direct Cell Proliferation Assay Kit (Invitrogen) per manufacturers protocol. The plates were read on EnVision 2105 multimode plate reader (Perkin Elmer) using FITC filter set. Dose response curve fitting and IC50 calculation was done using Genedata Screener software. Proliferation selectivity (i.e. selectivity index) for individual compound was derived as a mean of its IC50 ratios between each CDK2-independent versus CDK2-dependent cell line.

Row | SMILES | IC50 [1] [nM] | IC50 [2] [nM] | Proliferation selectivity Index [3]
1 | CCC(=O)O[C@@H]1CC[C@H](c2cc(NC(=O)Cc3cc(C)no3)n[nH]2)C1 [Example 115] | 1000 to 100000 | 100 to 250 | –
2 | Cc1cc(CC(=O)Nc2cc([C@@H]3CC[C@H](NC(=O)NC(C)C)C3)[nH]n2)on1 (single isomer, unassigned) [Example 102] | 1000 to 100000 | 1000 to 100000 | –
3 | Cc1cc(CC(=O)Nc2cc([C@H]3CC[C@@H](OC(N)=O)C3)[nH]n2)on1 (racemic) [Example 4] | 1000 to 100000 | 250 to 1000 | –
4 | Cc1cc(CC(=O)Nc2cc([C@@H]3CC[C@@H](CC(=O)NC4(C)CC4)C3)[nH]n2)on1 (single isomer, unassigned) [Example 31] | 1000 to 100000 | 1000 to 100000 | –
5 | CNC(=O)O[C@@H]1CC[C@H](c2cc(NC(=O)Cc3cc(C)no3)n[nH]2)C1 [Example 42] | 1000 to 100000 | 100 to 250 | –
6 | CC(C)NC(=O)O[C@@H]1CC[C@H](c2cc(NC(=O)c3c[n+](C(C)(C)C)nn3C)n[nH]2)C1 [Example 19] | 1000 to 100000 | 250 to 1000 | –
7 | Cc1cc(CC(=O)Nc2cc([C@H]3CC[C@@H](N4CC(C)(C)NC4=O)C3)[nH]n2)on1 (single isomer, unassigned) [Example 91] | 1000 to 100000 | ≤ 100 | –
8 | Cc1cc(CC(=O)Nc2cc([C@H]3CC[C@H](C(=O)NC(C)C)CC3)[nH]n2)on1 [Example 56] | 1000 to 100000 | 1000 to 100000 | –
9 | Cc1cc(C(=O)Nc2cc([C@H]3CC[C@@H](OC(=O)NC(C)C)C3)[nH]n2)on1 [Example 17] | 1000 to 100000 | ≤ 100 | –
10 | Cc1cc(CC(=O)Nc2cc([C@H]3CC[C@@H](N4CC(C)(C)NC4=O)C3)[nH]n2)on1 (single isomer, unassigned) [Example 117] | 1000 to 100000 | ≤ 100 | –
11 | Cc1cc(CC(=O)Nc2cc([C@H]3CC[C@@H](CC(=O)NC4(C)CC4)C3)[nH]n2)on1 (single isomer, unassigned) [Example 28] | 1000 to 100000 | 1000 to 100000 | –
12 | COCc1cc2c(Nc3cc([C@H]4C[C@@H](OC(=O)N[C@@H](C)C(F)(F)F)CO4)[nH]n3)nccn2n1 [Example I-9] | – | – | 24.63
13 | CC(C)NC(=O)O[C@@H]1CC[C@H](c2cc(Nc3ncnc4ncsc34)n[nH]2)C1 (single isomer, unassigned) [Example I-24] | – | – | 19.46
14 | Cc1cc(CC(=O)Nc2cc([C@H]3CC[C@@H](C(=O)NC(C)C)CC3)[nH]n2)on1 [Example 55] | 1000 to 100000 | 1000 to 100000 | –
15 | Cc1cc(CC(=O)Nc2cc([C@H]3CC[C@@H](NC(=O)NC(C)C)C3)[nH]n2)on1 (single isomer, unassigned) [Example 83] | 1000 to 100000 | 1000 to 100000 | –
16 | Cc1cc(CC(=O)Nc2cc([C@H]3CC[C@@H](OC(=O)NCCC(C)(C)O)C3)[nH]n2)on1 [Example 23] | 1000 to 100000 | 100 to 250 | –
17 | COCc1cc2c(Nc3cc([C@H]4C[C@@H](OC(=O)NC(C)(C)C(F)(F)F)CO4)[nH]n3)nccn2n1 [Example I-42] | – | – | 15.77
18 | CC(C)NC(=O)O[C@@H]1CC[C@H](c2cc(Nc3nccc4nccn34)n[nH]2)C1 (single isomer, unassigned) [Example I-11] | – | – | 24.26
19 | COCc1cc2c(Nc3cc([C@H]4C[C@@H](OC(=O)NC(C)(C)C#N)CO4)[nH]n3)nccn2n1 [Example I-29] | – | – | 18.45
20 | Cc1cc(CC(=O)Nc2cc([C@H]3C[C@@H](OC(=O)NC(C)C)C3)[nH]n2)on1 [Example 110] | 1000 to 100000 | ≤ 100 | –
21 | COCC1(NC(=O)O[C@@H]2CO[C@H](c3cc(NC(=O)c4cc(COC(F)(F)F)nn4C)n[nH]3)C2)CC1 [Example I-12] | – | – | 23.98
22 | CC(C)NC(=O)O[C@@H]1CC[C@H](c2cc(NC(=O)Cc3cnc4ncnn4c3)n[nH]2)C1 [Example 107] | 1000 to 100000 | 250 to 1000 | –
23 | C[C@H](NC(=O)O[C@H]1CO[C@@H](c2cc(Nc3ccc4c(n3)C(C)(C)NC4=O)n[nH]2)C1)C1CC1 [Example I-3] | – | – | 45.44
24 | COCc1nc2ccnc(Nc3cc([C@@H]4CC[C@H](OC(=O)NC(C)C)C4)[nH]n3)c2s1 (single isomer, unassigned) [Example I-19] | – | – | 20.52
25 | COCc1cc2c(Nc3cc([C@H]4C[C@@H](OC(=O)N[C@@H](C)CC(F)(F)F)CO4)[nH]n3)nccn2n1 (single isomer, unassigned) [Example I-33] | – | – | 17.57
26 | COCc1cc2c(Nc3cc([C@H]4C[C@@H](OC(=O)N5CCC5(C)C)CO4)[nH]n3)nccn2n1 [Example I-2] | – | – | 51.61
27 | CC(C)NC(=O)O[C@@H]1CC[C@H](c2cc(NC(=O)Cn3nnc4ccccc4c3=O)n[nH]2)C1 [Example 41] | 1000 to 100000 | ≤ 100 | –

Continued, in another order:

Row | IC50 [1] [nM] | IC50 [2] [nM] | SMILES | Proliferation selectivity Index [3]
28 | 1000 to 100000 | 1000 to 100000 | Cc1cc(CC(=O)Nc2ncn([C@@H]3CC[C@H](OC(=O)NC4(C)CC4)C3)n2)on1 (single isomer, unassigned) [Example 40] | –
29 | ≤ 100 | ≤ 100 | C=C(C)c1ccncc1O[C@H]1CC[C@@H](c2cc(NC(=O)Cc3cc(C)no3)n[nH]2)C1 (single isomer, unassigned) [Example 58] | –
30 | 250 to 1000 | 100 to 250 | Cc1cc(CC(=O)Nc2cc([C@@H]3CCC[C@H](OC(=O)NC4(C)CC4)CC3)[nH]n2)on1 (single isomer, unassigned) [Example 24] | –
31 | 100 to 250 | ≤ 100 | COCc1cc(C(=O)Nc2cc([C@@H]3CC[C@H](OC(=O)N(C)C(C)C)C3)[nH]n2)n(C)n1 [Example 8] | –
32 | 250 to 1000 | ≤ 100 | Cc1cc(CC(=O)Nc2cc([C@H]3CC[C@@H](OC(=O)NC(C)C)CC3)[nH]n2)on1 [Example 116] | –
33 | 100 to 250 | ≤ 100 | CC(C)NC(=O)O[C@@H]1CC[C@H](c2cc(NC(=O)Cc3ccccc3S(C)(=O)=O)n[nH]2)C1 [Example 14] | –
34 | 100 to 250 | ≤ 100 | CC(C)NC(=O)O[C@H]1CC[C@@H](c2cc(NC(=O)c3ccnn3C)n[nH]2)C1 [Example 6] | –
35 | ≤ 100 | ≤ 100 | CC(C)NC(=O)O[C@@H]1CC[C@H](c2cc(NC(=O)c3ccnc4ncsc34)n[nH]2)C1 [Example 13] | –
36 | ≤ 100 | ≤ 100 | CC(C)NC(=O)O[C@@H]1CC[C@H](c2cc(NC(=O)c3ccnn3C)n[nH]2)C1 [Example 5] | –
37 | ≤ 100 | ≤ 100 | C=C(C)c1ccncc1O[C@@H]1CC[C@H](c2cc(NC(=O)Cc3cc(C)no3)n[nH]2)C1 (single isomer, unassigned) [Example 57] | –
38 | ≤ 100 | ≤ 100 | CC1(NC(=O)O[C@@H]2CC[C@H](c3cc(NC(=O)Cc4ccccc4)n[nH]3)C2)CC1 [Example 7] | –
39 | 100 to 250 | ≤ 100 | CC(C)NC(=O)O[C@@H]1CC[C@H](c2cc(NC(=O)Cc3ccccc3)n[nH]2)C1 [Example 12] | –
40 | ≤ 100 | ≤ 100 | CC1(NC(=O)O[C@H]2CC[C@@H](c3cc(NC(=O)Cc4ccccc4)n[nH]3)C2)CC1 [Example 9] | –
41 | 250 to 1000 | ≤ 100 | Cc1cc(CC(=O)Nc2cc([C@H]3CC[C@@H](Oc4nnccc4C)C3)[nH]n2)on1 (single isomer, unassigned) [Example 119] | –
42 | 250 to 1000 | ≤ 100 | CC(C)NC(=O)O[C@@H]1CC[C@H](c2cc(NC(=O)Cc3ccnn3C)n[nH]2)C1 [Example 18] | –
